Test results from patent US12060347B2 (BRISTOL-MYERS SQUIBB COMPANY, priority 2016, dated 2024).
pIC50: −log10 of the molar value.

molecular target: T1, human PAR4 (Homo sapiens, UniProt Q96RI0); test: PAR4 FLIPR assay: antagonism of agonist-peptide-induced calcium mobilization in PAR4-expressing HEK293 cells; type: cell-based; conditions: H-Ala-Phe(4-F)-[…]NH2-induced intracellular calcium mobilization, 11-point curves
T1 construct: expressed in transfected cells; host or cells: HEK293 PAR4 Clone 1.2A (BMS Arctic ID 383940)
T1 sequence (Q96RI0 18-385): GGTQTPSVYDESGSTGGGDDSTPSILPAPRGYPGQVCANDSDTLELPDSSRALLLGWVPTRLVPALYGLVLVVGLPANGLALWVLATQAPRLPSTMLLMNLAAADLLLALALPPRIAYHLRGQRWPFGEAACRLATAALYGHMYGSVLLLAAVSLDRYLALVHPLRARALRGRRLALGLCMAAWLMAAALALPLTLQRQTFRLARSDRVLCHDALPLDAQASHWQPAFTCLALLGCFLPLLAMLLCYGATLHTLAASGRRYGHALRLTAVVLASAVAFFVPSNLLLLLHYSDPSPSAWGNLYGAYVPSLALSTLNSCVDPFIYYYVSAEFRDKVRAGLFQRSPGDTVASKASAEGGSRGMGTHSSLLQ

SMILES	pIC50
COCc1cnc2c(-c3nc4c(C)c(C)c(OC(C)C(C)O)cc4s3)cc(C)cc2n1 (mixture of isomers) [Example 323, 3-((2-(2-(methoxymethyl)-7-methylquinoxalin-5-yl)-4,5-dimethylbenzo[d]thiazol-6-yl)oxy)butan-2-ol]	7.82
COCc1cnc2c(-c3nc4c(C)c(C)c(OC(C)CO)cc4s3)cc(C)cc2n1 (racemic) [Example 321, 2-((2-(2-(methoxymethyl)-7-methylquinoxalin-5-yl)-4,5-dimethylbenzo[d]thiazol-6-yl)oxy)propan-1-ol]	8.51
COCc1cnc2c(-c3nc4c(C)c(C)c(OCC(C)O)cc4s3)cc(C)cc2n1 (racemic) [Example 322, 1-((2-(2-(methoxymethyl)-7-methylquinoxalin-5-yl)-4,5-dimethylbenzo[d]thiazol-6-yl)oxy)propan-2-ol]	8.29
COCc1cnc2c(-c3nc4c(C(O)C(C)(C)C)c(C)c(OC)cc4s3)cc(C)cc2n1 (racemic) [Example 328, 1-(6-methoxy-2-(2-(methoxymethyl)-7-methylquinoxalin-5-yl)-5-methylbenzo[d]thiazol-4-yl)-2,2-dimethylpropan-1-ol]	8.85
COc1ccc(NC(=O)OCC(C)Oc2cc3sc(-c4cc(C)cc5nc(OC)cnc45)nc3c(Cl)c2F)cn1 (racemic) [Example 381, 2-((4-chloro-5-fluoro-2-(2-methoxy-7-methylquinoxalin-5-yl)benzo[d]thiazol-6-yl)oxy)propyl (6-methoxypyridin-3-yl)carbamate]	8.85
COCC(COc1cc2sc(-c3cc(C)cc4nc(OC)cnc34)nc2cc1F)OC(=O)Nc1cccnc1 (racemic) [Example 516, 1-((5-fluoro-2-(2-methoxy-7-methylquinoxalin-5-yl)benzo[d]thiazol-6-yl)oxy)-3-methoxypropan-2-yl pyridin-3-ylcarbamate (rac)]	8.70
COc1cnc2c(-c3nc4cc(F)c(OCC(COCC(C)C)OC(=O)Nc5cnc(C)nc5)cc4s3)cc(C)cc2n1 (racemic) [Example 525, 1-((5-fluoro-2-(2-methoxy-7-methylquinoxalin-5-yl)benzo[d]thiazol-6-yl)oxy)-3-isobutoxypropan-2-yl (2-methylpyrimidin-5-yl)carbamate (rac)]	8.64
COCc1cnc2c(-c3nc4c(C(O)c5ccccc5)cc(OC)cc4s3)cc(C)cc2n1 (single isomer, unassigned) [Example 163, (6-methoxy-2-(2-(methoxymethyl)-7-methylquinoxalin-5-yl)benzo[d]thiazol-4-yl)(phenyl)methanol]	9.30
COCc1cnc2c(-c3nc4c(C(O)C(C)(C)C)cc(OC)cc4s3)cc(C)cc2n1 (single isomer, unassigned) [Example 164, 1-(6-methoxy-2-(2-(methoxymethyl)-7-methylquinoxalin-5-yl)benzo[d]thiazol-4-yl)-2,2-dimethylpropan-1-ol]	9.30
[2H]C(O)(c1cc(OC)cc2sc(-c3cc(C)cc4nc(COC)cnc34)nc12)C(C)(C)C (single isomer, unassigned) [Example 169, 1-(6-methoxy-2-(2-(methoxymethyl)-7-methylquinoxalin-5-yl)benzo[d]thiazol-4-yl)-2,2-dimethylpropan-1-ol-1-d1]	9.40
[2H]C([2H])([2H])OC([2H])([2H])c1cnc2c(-c3nc4c(C(O)C(C)(C)C)cc(OC)cc4s3)cc(C)cc2n1 (single isomer, unassigned) [Example 170, 1-(6-methoxy-2-(2-(methoxymethyl)-7-methylquinoxalin-5-yl)benzo[d]thiazol-4-yl)-2,2-dimethylpropan-1-ol-d5]	9.52
COc1ccc(NC(=O)OC[C@H](C)Oc2cc3sc(-c4cc(C)cc5nc(OC)cnc45)nc3c(Cl)c2F)cn1 (single isomer, unassigned) [Example 382]	8.89
COc1cc(C(O)C(F)(F)F)c2nc(-c3cc(C)cc4nc(OC)cnc34)sc2c1 (single isomer, unassigned) [Example 633, 2,2,2-trifluoro-1-(6-methoxy-2-(2-methoxy-7-methylquinoxalin-5-yl)benzo[d]thiazol-4-yl)ethanol]	8.59
